Measurements from patent US20260048049A1, “METHODS FOR TREATING CANCER USING INHALED ANGIOGENESIS INHIBITOR” (Pulmatrix Operating Company, Inc., priority 2022, published 2026).
Read-outs that look alike come from different tables or passages of the source.

Assays:
[1] = UniDose POD in vitro dissolution of the impactor stage mass (ISM); format: physicochemical; details: 500 ml PBS pH 7.4 + 2.0% SDS, 37° C.
Source text: The following in vitro dissolution model was used to understand the dissolution properties of itraconazole containing dry powder aerosols. The aerosol particles were collected at well-defined aerosol particle size distribution (APSD) cut-offs using the Next Generation Impactor (NGI) (Copley Scientific, UK), and then the dissolution behavior simulated using model lung fluid.
A UniDose™ (Nanopharm, Newport, United Kingdom) aerosol dose collection system combined with a modified next generation impactor (NGI) was used to uniformly deposit the impactor stage mass (ISM), which is defined as the dose collected on and below stage 2 of a next generation impactor, onto a suitable filter for subsequent dissolution studies in a USP V—Paddle over disk (POD) apparatus.
The aerosol dose was collected in the UniDose system. […] The UniDose collection system was used to uniformly deposit the whole impactor stage mass (i.e., below stage 2 of an NGI) onto a glass microfiber filter membrane, which can be seen as where the circles (representing particles or droplets) deposit. The filter was placed into a disk cassette and dissolution studies were undertaken using 500 ml PBS pH 7.4+2.0% SDS in a USP Apparatus II POD (Paddle Over Disk, USP V) at 37° C. For all studies, sink conditions were maintained within the vessel. […]

[2] = cited from earlier work
[3] = tested on: Calu-3 cell line epithelial cell monolayers; assay: cNGI integrated dissolution and permeability study; format: in vitro ADME; details: Calu-3 ALI monolayer, stage 4 of cNGI
Source text: This was done using the following equation: […]

half-life [1]: 1.7 h
Structure (SMILES): CCC(C)n1ncn(-c2ccc(N3CCN(c4ccc(OCC5COC(Cn6cncn6)(c6ccc(Cl)cc6Cl)O5)cc4)CC3)cc2)c1=O (stereo not shown) [Pure ITZ, itraconazole]
plasma protein binding ([2]; capsules): 99.6% | plasma protein binding ([2]; oral solution): 99.8% | dissolution and permeability kinetics [3]: slower dissolution and permeability kinetics than the other formulations
